Assay results as given in PubChem BioAssay (NCI).
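Five compound concentrations were applied to cells in 96-well plates for 48 hours; endpoints were derived by simple linear interpolation of the resulting dose-response curve. The concentration for full growth arrest is given as TGI.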

How the values were obtained:
Experiment in all cases: NCI-60 cell line screen, 48 h
MCF7 breast = system: MCF7 breast
SN12C renal = system: SN12C renal
OVCAR-4 ovarian = system: OVCAR-4 ovarian
EKVX NSCLC = system: EKVX NSCLC
KM12 colon = system: KM12 colon
U251 CNS = system: U251 CNS
SF-268 CNS = system: SF-268 CNS
TK-10 renal = system: TK-10 renal
M14 melanoma = system: M14 melanoma
MDA-MB-231 breast = system: MDA-MB-231 breast

SMILES	TGI (MCF7 breast) [µM]	TGI (SN12C renal) [µM]	TGI (OVCAR-4 ovarian) [µM]	TGI (EKVX NSCLC) [µM]	TGI (KM12 colon) [µM]	TGI (U251 CNS) [µM]	TGI (SF-268 CNS) [µM]	TGI (TK-10 renal) [µM]	TGI (M14 melanoma) [µM]	TGI (MDA-MB-231 breast) [µM]
O=C1CCCn2c3ccccc3c3ccnc1c32	> 100	> 100	> 100	> 85.2	> 100	> 100	> 100			
O=c1[nH]/c(=C/c2cccs2)c(=O)[nH]/c1=C/c1ccc(OCc2ccccc2)cn1	39.6	> 100	45.5	> 100	26.3	23.8	> 36.3	27.4	0.0381	> 48.9
O=c1[nH]nc(Nc2ccccc2)c2nnn(Cc3ccccc3)c12	> 100	> 100	> 100	> 100	> 100	> 100	> 100	> 100	> 100	> 100
CC(CCC(=O)O)(c1cc(Br)c(O)c(Br)c1)c1cc(Br)c(O)c(Br)c1	> 100	> 100	> 100	> 100	> 100	> 100	> 100	> 100	> 100	> 100
CS(=O)(=O)c1ccc(C2=C(c3ccccc3)C(=O)OC2)cc1	> 100	> 100	> 100	> 100	> 100	> 100	> 100	> 100	> 100	> 100
COC(=O)c1ccc2c(c1)CC1(C2)Cc2ccc3c(c2C1)CCC3 (stereo unspecified)	81.5	> 100	> 100	> 100	40.9	> 100	> 100	> 100	13	22.1
CCCc1c(OC)c(O)c2c(=O)cc(OC)c3c4c(OC)cc(=O)c5c(O)c(OC)c(CCC)c(c1c23)c54	26.5	15.3	32.7	15.3	53.7	6.41	19.6	> 100	20.4	8.54
C=CCn1c(-c2ccc(N=NNc3ccc(-c4n[nH]c(=S)n4CC=C)cc3)cc2)n[nH]c1=S	> 100	> 100	6.35	> 100		17.5	21.5	> 100	> 100	> 100
CN(CCN(C)Cc1ccc(Cl)c(Cl)c1)CCN1CCCC1	> 85.1	> 100	> 100	> 100	> 100	> 100	> 100	> 100	> 54.4	> 96.1
O=C(O)C(C1NCCS1)N1Cc2ccccc2C1 (stereo unspecified)	> 100	> 100	> 100	> 100	> 100	> 100		> 100	> 100	> 100
O=C1OS2(OC(=O)c3cccc4cccc2c34)c2ccccc21 (stereo unspecified)	> 100	> 100	> 100	> 100	> 100	> 100	> 100	> 100	> 100	> 100
CC1CN=C(c2ccc3c(c2)Cc2cc(C4=NCC(C)N4)ccc2-3)N1 (stereo unspecified)	65.3	> 100	48.6	> 100	56	46.7	77.7	> 100	> 100	> 100
COc1cc(/C=C/C(=O)OC[C@]23O[C@H]2[C@@H](OC2OC(C)C(O)C(O)C2O)C2C=CO[C@@H](OC4OC(CO)C(O)C(O)C4O)C23)ccc1O (stereo partly specified)	> 100	> 100	> 100	> 100	> 100	> 100	> 100	> 100	> 100	> 100
O=c1[nH]c(=O)n(COCCO)cc1-c1ccccc1	> 100	> 100	> 100	> 100	> 100	> 100	> 100	> 100	> 100	> 100
CCOC(=O)Cn1c(=O)c2cc(C)cc3c(Cl)nc4c(OC)c(OC)cc1c4c32	> 100		> 100	> 100	> 100	> 100	> 100	> 100	> 100	> 100
CCOC(=O)n1c2ccccc2c2c(O)c(OC)c3c(c21)C(=O)NC3=O	> 100	> 100	> 100	> 100	> 100	> 100		> 100	> 100	56.4
CC(C)=CCC[C@@H](C)c1c(O)c(O)c(C)c2nc3ccccc3nc12	13.4	6.38	19.9	14.8	13.2	22.8	7.22	17	12.9	15
Cc1ccc(N=c2oc3c(ccc4ccccc43)nc2Nc2ccc(C)cc2)cc1		> 100	> 100	> 100	> 100	> 100	> 100	> 100		> 100
COC(=O)[C@@]12CC3CN(Cc4c1[nH]c1ccccc41)C2CC3=O	> 100	> 100	> 100	> 100	> 100	> 100	> 100	> 100	> 100	> 100
Cc1cc(C)c2c(=O)n(CC(O)CN3CCN(c4ncccn4)CC3)sc2n1 (stereo unspecified)	31.8	31.6	37.3	29.5	44.6	31.7	32.6	32.1	29.1	31.3
COc1cc2[nH]c(=O)[nH]c2c2c(C)c[nH]c12	> 100	> 100	> 100	> 100	> 100	> 100	> 100	> 100	> 100	> 100
CC(C)OCC(O)COc1cc(=O)oc2ccccc12 (stereo unspecified)	> 100	> 100	> 100	> 100	> 100	> 100	> 100	> 100	> 100	> 100
